Reference: patent publication US20220274947A1, “NOVEL HETEROARYL-TRIAZOLE COMPOUNDS AS PESTICIDES” (Bayer Aktiengesellschaft, priority 2019, published 2022)

What was measured:
Type in all cases: in vivo
Nilaparvata lugens = Nilaparvata lugens spray test; conditions: 96 h, rice plants, after 4 days; for mortality at 500 g/ha: application rate 500 g/ha; for mortality at 100 g/ha: application rate 100 g/ha
Method: Nilaparvata lugens—Spray Test Solvent: 78.0 parts by weight of acetone • • 1.5 parts by weight of dimethylformamide Emulsifier: alkylarylpolyglycol ether
(§1) To produce a suitable preparation of active compound, 1 part by weight of active compound is mixed with the stated amount of solvents and is diluted with water, containing an emulsifier concentration of 1000 ppm, to the desired concentration. Further test concentrations are prepared by dilution with emulsifier containing water.
Rice plants (Oryza sativa) are sprayed with a preparation of the active ingredient of the desired concentration and the plants are infested with the brown planthopper (Nilaparvata lugens).
After 4 days mortality in % is determined. 100% means all planthoppers have been killed and 0% means none of the planthoppers have been killed.

Tetranychus urticae = Tetranychus urticae spray test, OP-resistant; conditions: foliar, 144 h, application rate 100 g/ha, French bean leaf disks, after 6 days
Method: Tetranychus urticae—Spray Test OP-Resistant Solvent: 78.0 parts by weight acetone • 1.5 parts by weight dimethylformamide Emulsifier: alkylarylpolyglycol ether
as §1
French bean (Phaseolus vulgaris) leaf disks infected with all instars of the two spotted spidermite (Tetranychus urticae), are sprayed with a preparation of the active ingredient of the desired concentration.
After 6 days mortality in % is determined. 100% means all spider mites have been killed and 0% means none of the spider mites have been killed.

[1] = system: Blattella germanica strain PAULINIA; experiment: Blattella germanica test (BLTTGE surface treatment & contact assay); conditions: exposure 30 minutes, 24 hours after contact, read-out: efficacy (mortality); for mortality at 20 mg/m2: surface concentration 20 mg/m^2, glazed tile; for mortality at 4 mg/m2: surface concentration 4 mg/m^2, glazed tile
Method: Blattella germanica Test (BLTTGE Surface Treatment & Contact Assay) Solvent: Aceton+2000 ppm rapeseed oil methyl ester (RME)
In order to produce a sufficient, active ingredient containing solution it is necessary to solve the test compound in the solvent-mix (acetone at 2 mg/ml/RME 2000 ppm). This solution is pipetted onto a glazed tile and after evaporation of the acetone, adult animals of the species Blattella germanica strain […] are placed onto the dried surface. The exposure time is 30 minutes. Mortality in percent (%) is determined 24 hours after contact of the insects to the treated surface. 100% mortality means that all tested insects are dead, whereas 0% means that no insect died.

`C[C@H](NC(=O)c1ccnc(C(F)(F)F)n1)c1ncnn1-c1ccc(C#N)cn1` [II-8] was tested, and the mortality at 500 g/ha (Nilaparvata lugens) was 100%.
Work on `C[C@H](NC(=O)c1cc(Cl)cc(C(F)F)c1)c1ncnn1-c1ccc(C#N)cn1` [II-12] yielded a mortality at 100 g/ha (Tetranychus urticae) of 90%.
`C[C@H](NC(=O)c1cc(C(F)(F)F)cc(C(F)(F)F)c1)c1ncnn1-c1ccc(C(=O)N(C)C2CC2)cn1` [II-38, 6-(5-{(1S)-1-[3,5-bis(trifluoromethyl)benzamido]ethyl}-1H-1,2,4-triazol-1-yl)-N-cyclopropyl-N-methylnicotinamide] showed a mortality at 100 g/ha (Tetranychus urticae) of 90%.
`C[C@H](NC(=O)c1cc(Cl)cc(C(F)(F)F)c1)c1ncnn1-c1cc(-n2cncn2)ccn1` [II-43] showed a mortality at 500 g/ha (Nilaparvata lugens) of 90%.
For `C[C@H](NC(=O)c1cc(C(F)(F)F)cc(C(F)(F)F)c1)c1ncnn1-c1ccc(C(=O)N(C)CC2CC2)cn1` [II-73], the mortality at 500 g/ha (Nilaparvata lugens) was 100%.
`C[C@H](NC(=O)c1cc(OC(F)F)cc(OC(F)F)c1)c1ncnn1-c1ccc(C#N)cn1` [II-77] showed a mortality at 20 mg/m2 [1] of 80 to 100%.
With `C[C@H](NC(=O)c1cc(Br)cc(C(F)F)c1)c1ncnn1-c1ccc(C#N)cn1` [II-83] the mortality at 20 mg/m2 [1] was 80 to 100%.
With `Cc1nc([C@H](C)NC(=O)c2cc(C(F)(F)F)cc(C(F)(F)F)c2)n(-c2ccc(C(=O)N(C)C3CC3)cn2)n1` [II-96] the mortality at 100 g/ha (Nilaparvata lugens) was 90%.
Molecule `Cc1nc([C@H](C)NC(=O)c2cc(C(F)(F)F)cc(C(F)(F)F)c2)n(-c2ccc(C(=O)N(C)CC#N)cn2)n1` [II-99] has a mortality at 100 g/ha (Nilaparvata lugens) of 90% and a mortality at 100 g/ha (Tetranychus urticae) of 90%.
For `C[C@H](NC(=O)c1cc(C(F)F)cc(C(F)F)c1)c1ncnn1-c1ccc(C#N)cn1` [II-101], the mortality at 20 mg/m2 [1] was 80 to 100%.
Molecule `C[C@H](NC(=O)c1cc(OC(F)(F)F)cc(C(F)F)c1)c1ncnn1-c1ccc(C#N)cn1` [II-111] has a mortality at 4 mg/m2 [1] of 80 to 100% and a mortality at 20 mg/m2 [1] of 80 to 100%.
Work on `C[C@H](NC(=O)c1cc(OC(F)F)cc(C(F)F)c1)c1ncnn1-c1ccc(C#N)cn1` [II-116] yielded a mortality at 4 mg/m2 [1] of 80 to 100% and a mortality at 20 mg/m2 [1] of 80 to 100%.
